Data on 20 compounds can be found in patent US20090209568A1, “Spiro [Benzopyran] or Spiro [Benzofuran] Derivatives Which Inhibit the Sigma Receptor” (priority 2006, published 2009).

What is called melting point is the temperature, or range, at which the solid turns liquid. What is called inhibition is the percentage by which the read-out fell short of the control. Read a high inhibition as a strong effect. A word on the Ki: it is the equilibrium dissociation constant of an inhibitor or competing ligand from its target.

One data set deals with σ2-receptor. Put plainly: Sigma-2 receptor radioligand binding, [3H]-DTG (Version A / Version B). Conditions: compound 10^−6 M. More on the design: species or system mice (Version A, σ1 knockout brain) / rat (Version B, liver). How it is done:
Binding studies for σ2-receptor were performed as described (Radesca et al., 1991) with some modifications. In brief, brains from sigma receptor type I (σ1) knockout mice were homogenized in a volume of 10 mL/g tissue net weight of ice-cold 10 mM Tris-HCl, pH 7.4, containing 320 mM sucrose (Tris-sucrose buffer) with a Potter-Elvehjem homogenizer (10 strokes at 500 r.p.m.) The homogenates were then centrifuged at 1000 g for 10 min at 4° C., and the supernatants were saved. The pellets were resuspended by vortexing in 2 mL/g ice-cold Tris-sucrose buffer and centrifuged again at 1000 g for 10 min. The combined 1000 g supernatants were centrifuged at 31000 g for 15 min at 4° C. The pellets were resuspended by vortexing in 3 mL/g 10 mM Tris-HCl, pH 7.4, and the suspension was kept at 25° C. for 15 min. Following centrifugation at 31000 g for 15 min, the pellets were resuspended by gentle Potter Elvehjem homogenization to a volume of 1.53 mL/g in 10 mM Tris-HCl pH 7.4.
The assay tubes contained 10 μL of [^3H]-DTG (final concentration of 3 nM), 400 μL of the tissue suspension (5.3 mL/g in 50 mM Tris-HCl, pH 8.0) to a final assay volume of 0.5 mL. Non-specific binding was defined by addition of a final concentration of 1 μM haloperidol. All tubes were incubated at 25° C. for 120 min before termination of the reaction by rapid filtration over Schleicher & Schuell GF 3362 glass fibre filters [previously soaked in a solution of 0.5% polyethylenimine for at least 1 h]. Filters were washed with three times with 5 mL volumes of cold Tris-HCl buffer (10 mM, pH 8.0). Following addition of scintillation cocktail samples were allowed to equilibrate overnight. The amount of bound radioactivity was determined by liquid scintillation spectrometry using a Wallac Winspectral 1414 liquid scintillation counter. Protein concentrations were determined by the method of Lowry et al. (1951).
In brief the σ2-Receptor preparation was prepared from rat liver. The livers were homogenized in 5 to 6 times of volume sucrose solution (0.32M) and homogenized. The homogenate was centrifuged at 2900 rpm, 4° C., 10 min). the supernatant was centrifuged again (31000×g, 4° C., 20 min). The pellet was resuspended in TRIS-buffer, incubated for 30 min at room temperature while stirring and centrifuged f (31000×g, 4° C., 20 min). The pellet was resuspended in cold TRIS-buffer pH 8 and homogenized. Then the protein content was measured (approx. 2 mg/mL) and the homogenate frozen at −80° C. for later use.
The radioligand used was [^3H]-Ditolylguanidin in TRIS-buffer pH 8. The σ1-receptor binding sites were masked through (+)-Pentazocin-solution in TRIS-Puffer pH 8.
In a volume of 200 μL 50 μL compound solution of varying concentration, 50 μL (+Pentazocin-solution (2 μM; resulting in 500 nM in the assay), 50 μL radioligand-solution (12 nM; resulting in 3 nM in the assay) and finally 50 μL of receptor preparation (approx. 2 mg/mL) were given into a well of a microplate equipped with a filter. The plate was closed and stirred for 2 h at room temperature and 500 rpm. Following that the solvents were removed by a harvester through the filter. After rinsing with H2O the filter was measured in a scintillation counter ([^3H]-protocol).

A further data set deals with T1, σ1-receptor (Cavia porcellus, UniProt Q60492).
T1 construct: guinea pig brains were homogenized in 10 vols; (w/v) of Tris-HCl 50 mM 0.32 M sucrose; from tissue; host or cells: guinea pig brain membranes
Put plainly: Sigma-1 receptor radioligand binding, [3H](+)pentazocine (Version A / Version B). Conditions: for % Binding σ1 10^−6 M: compound 10^−6 M; for % Binding σ1 10^−6 M / inhibition at 0.1 µM / inhibition at 0.01 µM: guinea pig brain membranes; for inhibition at 0.1 µM: compound 10^−7 M; for inhibition at 0.01 µM: compound 10^−8 M; for Ki: value in parentheses below the % binding, guinea pig brain. More on the design: species or system guinea pig. How it is done:
Brain membrane preparation and binding assays for the σ1-receptor were performed as described (DeHaven-Hudkins et al., 1992) with some modifications. In brief, guinea pig brains were homogenized in 10 vols. (w/v) of Tris-HCl 50 mM 0.32 M sucrose, pH 7.4, with a Kinematica Polytron PT 3000 at 15000 r.p.m. for 30 s. The homogenate was centrifuged at 1000 g for 10 min at 4° C. and the supernatants collected and centrifuged again at 48000 g for 15 min at 4° C. The pellet was resuspended in 10 volumes of Tris-HCl buffer (50 mM, pH 7.4), incubated at 37° C. for 30 min, and centrifuged at 48000 g for 20 min at 4° C. Following this, the pellet was resuspended in fresh Tris-HCl buffer (50 mM, pH 7.4) and stored on ice until use.
Each assay tube contained 10 μL of [^3H](+)pentazocine (final concentration of 0.5 nM), 900 μL of the tissue suspension to a final assay volume of 1 mL and a final tissue concentration of approximately 30 mg tissue net weight/mL. Non-specific binding was defined by addition of a final concentration of 1 μM haloperidol. All tubes were incubated at 37° C. for 150 min before termination of the reaction by rapid filtration over Schleicher & Schuell GF 3362 glass fibre filters [previously soaked in a solution of 0.5% polyethylenimine for at least 1 h]. Filters were then washed with four times with 4 mL of cold Tris-HCl buffer (50 mM, pH 7.4). Following addition of scintillation cocktail, the samples were allowed to equilibrate overnight. The amount of bound radioactivity was determined by liquid scintillation spectrometry using a Wallac Winspectral 1414 liquid scintillation counter. Protein concentrations were determined by the method of Lowry et al. (1951).
In brief the σ1-receptor preparation was prepared from guinea pig brain. The brains were homogenized in 5 to 6 times of volume sucrose solution (0.32M) and homogenized. The homogenate was centrifuged at 2900 rpm, 4° C., 10 min). the supernatant was centrifuged again (23500×g, 4° C., 20 min). The pellet was resuspended in Tris-buffer, incubated for 30 min at room temperature and centrifuged f (23500×g, 4° C., 20 min). The pellet was resuspended in cold TRIS-buffer and homogenized. Then the protein content was measured (approx. 1.5 mg/mL) and the homogenate frozen at −80° C. for later use.
The radioligand used was [^3H]-(+)-Pentazocin in TRIS-buffer. In a volume of 200 μL 50 μL TRIS-buffer, 50 μL compound solution of varying concentration, 50 μL radioligand-solution (8 nM; resulting in 2 nM in the assay) and finally 50 μL of receptor preparation (approx. 1.5 mg/mL) were given into a well of a microplate equipped with a filter. The plate was closed and stirred for 2.5 h at 37° C. and 500 rpm. Following that the solvents were removed by a harvester through the filter. After rinsing with H2O the filter was measured in a scintillation counter ([^3H]-protocol).

T1 sequence (Q60492 whole entry): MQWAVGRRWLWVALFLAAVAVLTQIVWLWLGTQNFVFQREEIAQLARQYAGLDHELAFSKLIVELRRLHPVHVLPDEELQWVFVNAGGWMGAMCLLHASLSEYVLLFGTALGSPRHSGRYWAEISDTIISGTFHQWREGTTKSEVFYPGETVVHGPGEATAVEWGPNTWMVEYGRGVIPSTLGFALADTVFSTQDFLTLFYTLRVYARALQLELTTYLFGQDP

Regarding `CO[C@@H]1Cc2ccccc2[C@]2(CCCN(Cc3ccccc3)C2)O1` (relative stereo) [Example 2, trans-1′-Benzyl-3-methoxy-3,4-dihydrospiro[[2]benzopyran-1,3′-piperidin]], the “% Binding σ2 10^−6 M” value in the data set with σ2-receptor worked out at 27.8%. Besides, the “% Binding σ1 10^−6 M” value at σ1-receptor is 12.9%.

With `COC1Cc2ccccc2C2(CCCNC2)O1` (centres unmarked), the melting point lay within 54 to 58 °C.

Turning to `CCCCCCCCN1CCC2(C1)OC(OC)c1ccccc12` (mixture of isomers) [Example 30, cis/trans-3-Methoxy-1′-octyl-3H-spiro[[2]benzofuran-1,3′-pyrrolidin]], on σ1-receptor, 0.1 µM produced 91.5% inhibition and 0.01 µM produced 41.8% inhibition.

At σ1-receptor, `COC1Cc2ccccc2C2(CCN(CCCCc3ccccc3)C2)O1` (mixture of isomers) [Example 21, cis/trans-3-Methoxy-1′-(4-phenylbutyl)-3,4-dihydrospiro[[2]benzopyran-1,3′-pyrrolidin]] came in with an inhibition at 0.1 µM of 67% and an inhibition at 0.01 µM of 32%.

On to `CCCCCCCCN1CCC2(CC1)OC(OC)Cc1ccccc12` (centres unmarked) [Example 37], for which the “% Binding σ2 10^−6 M” value in the data set with σ2-receptor worked out at 72.6%. Further, the “% Binding σ1 10^−6 M” value on σ1-receptor amounted to 103.9%.

For the compound `COC1OC2(CC[N+]3(CCCC3)CC2)c2ccccc21.[Br-]` (centres unmarked), the melting point came to 124 °C.

Consider `CCCCN1CCC2(C1)OC(OC)c1ccccc12` (mixture of isomers) [Example 29, cis/trans-1′-Butyl-3-methoxy-3H-spiro[[2]benzofuran-1,3′-pyrrolidin]], for which, at σ1-receptor, testing at 0.1 µM gave an inhibition of 68.9% and testing at 0.01 µM gave an inhibition of 45.6%.

Turning to `CCCCCCCCN1CCC[C@@]2(C1)O[C@H](OC)Cc1ccccc12` [Example 14, cis-3-Methoxy-1′-octyl-3,4-dihydrospiro[[2]bonzopyran-1,3′-piperidin]], in the data set on σ2-receptor, the “% Binding σ2 10^−6 M” value amounted to 45.4%. Besides, the “% Binding σ1 10^−6 M” value at σ1-receptor is 46.3%.

Consider `COC1OC2(CCN(CCCCc3ccccc3)C2)c2ccccc21` (mixture of isomers) [Example 28, cis/trans-3-Methoxy-1′-(4-Phenylbutyl)-3H-spiro[[2]benzofuran-1,3′-pyrrolidin]], for which, at σ1-receptor, the inhibition at 0.1 µM was 80.4% and the inhibition at 0.01 µM is 27.4%.

As for `CO[C@@H]1Cc2ccccc2[C@@]2(CCCN(CCCc3ccccc3)C2)O1` (relative stereo) [Example 6, cis-3-Methoxy-1′-(3-phenylpropyl)-3,4-dihydrospiro[[2]benzopyran-1,3′-piperidin]], in the data set with σ2-receptor, the “% Binding σ2 10^−6 M” value amounted to 32.2%. The “% Binding σ1 10^−6 M” value on σ1-receptor came out at 38.8%.

Regarding `CCCCCCCCN1CCC[C@]2(C1)O[C@H](OC)Cc1ccccc12` (relative stereo) [Example 15, trans-3-Methoxy-1′-octyl-3,4-dihydrospiro[[2]benzopyran-1,3′-piperidin]], in the data set on σ2-receptor, the “% Binding σ2 10^−6 M” value is 56.3%. On σ1-receptor, the “% Binding σ1 10^−6 M” value was found to be 27.6%.

Consider `CCCCN1CCC2(CC1)OC(OC)Cc1ccccc12` (centres unmarked) [Example 36], for which, in the data set with σ2-receptor, the “% Binding σ2 10^−6 M” value is on record as 39.7%. At σ1-receptor, the “% Binding σ1 10^−6 M” value is 100.8% and the Ki turned out to be 2.3 nM.

In the case of `COC1Cc2ccccc2C2(CCN(CCc3ccccc3)C2)O1` (mixture of isomers) [Example 20, cis/trans-3-Methoxy-1′-(2-phenylethyl)-3,4-dihydrospiro[[2]benzopyran-1,3′-pyrrolidin]], at σ1-receptor, the inhibition at 0.1 µM was determined as 89.5% and 0.01 µM produced 32% inhibition.

With `CCCCN1CCC[C@@]2(C1)O[C@H](OC)Cc1ccccc12` (relative stereo) [Example 10, cis-1′-Butyl-3-methoxy-3,4-dihydrospiro[[2]benzopyran-1,3′-piperidin]], in the data set on σ2-receptor, the “% Binding σ2 10^−6 M” value is reported as 7.6%. The “% Binding σ1 10^−6 M” value on σ1-receptor was 56^ %.

Regarding `CCCCCCCCN1CCC2(C1)OC(OC)Cc1ccccc12` (mixture of isomers) [Example 23, cis/trans-3-Methoxy-1′-octyl-3,4-dihydrospiro[[2]benzopyran-1,3′-pyrrolidin]], at σ1-receptor, the inhibition at 0.1 µM is 70.4% and the inhibition at 0.01 µM was found to be 0.8%.

At σ1-receptor, `COC1OC2(CCN(CCc3ccccc3)C2)c2ccccc21` (mixture of isomers) [Example 27, cis/trans-3-Methoxy-1′-(2-Phenylethyl)-3H-spiro[[2]benzofuran-1,3′-pyrrolidin]] came in with an inhibition at 0.1 µM of 92.2% and an inhibition at 0.01 µM of 40.4%.

With `CO[C@@H]1Cc2ccccc2[C@]2(CCCN(CCCc3ccccc3)C2)O1` (relative stereo) [Example 7, trans-3-Methoxy-1′-(3-phenylpropyl)-3,4 dihydrospiro[[2]benzopyran-1,3′-piperidin]], the “% Binding σ2 10^−6 M” value with σ2-receptor was 54.3%. Besides, the “% Binding σ1 10^−6 M” value on σ1-receptor was 14^ %.

As for `CO[C@@H]1Cc2ccccc2[C@@]2(CCCN(Cc3ccccc3)C2)O1` [Example 1, cis-1′-Benzyl-3-methoxy-3,4-dihydrospiro[[2]benzopyran-1,3′-piperidin]], at 0.1 µM the inhibition at σ1-receptor was 34%.

Regarding `CCCCN1CCC[C@]2(C1)O[C@H](OC)Cc1ccccc12` (racemic) [Example 11, trans-1′-Butyl-3-methoxy-3,4-dihydrospiro[[2]benzopyran-1,3′-piperidin]], in the data set with σ2-receptor, the “% Binding σ2 10^−6 M” value turned out to be 18.8%. For the same compound, at σ1-receptor, the “% Binding σ1 10^−6 M” value is 49^ %.

As to `COC1Cc2ccccc2C2(CCN(Cc3ccccc3)C2)O1` (mixture of isomers) [Example 18, cis/trans-1′-Benzyl-3-methoxy-3,4-dihydrospiro[[2]benzopyran-1,3′-pyrrolidin]], on σ1-receptor, the “% Binding σ1 10^−6 M” value was 96.2% and the Ki is 70 nM.
